Converted amounts (≈) assume the structure as drawn. Read-outs that look alike come from different tables or passages of the source.
Key:
[1] = Lipophilicity determination by RP-HPLC (log k, log D); format: physicochemical; conditions: for log k: MeOH 72%/H2O 28%; for log D6.5: MeOH 72%/acetate buffered saline pH 6.5; for log D7.4: MeOH 72%/acetate buffered saline pH 7.4
Experimental: In addition to the mentioned ADME profile, it is responsible for interactions with biological targets. Lipophilicity is recognized as one of the most important parameters influencing ADME and bioactivity and is also part, e.g., of Lipinski’s Rule of Five (Ro5). This thermodynamic parameter describing the molecule’s affinity for an aqueous or relatively lipophilic environment can be characterized by the logarithm of the partition coefficient (log P). In this study, lipophilicity was measured by reversed-phase high-performance liquid chromatography (RP-HPLC) under isocratic conditions with methanol as the organic modifier in the aqueous mobile phase and the logarithm of the capacity factor k was calculated, which is used as the lipophilicity index converted to the log P scale. In addition to the log k values, the logarithm of the distribution coefficient DpH at pH 6.5 and 7.4 was determined to clarify the behavior of the compounds under physiological conditions and possible ionization. Instead of water, a buffer of suitable pH was used as part of the mobile phase. In addition to the above-mentioned experimental methods, commercially available ChemBioDraw Ultra 13.0 and ACD/Percepta ver. 2012 programs were used to calculate the lipophilicity values of all prepared compounds.
A HPLC separation module Waters Alliance 2695 XE equipped with a Waters Dual Absorbance Detector 2486 (Waters Corp., Milford, MA, USA) was used. A chromatographic column Symmetry® C18 5 μm, 4.6 × 250 mm, Part No. W21751W016 (Waters Corp., Milford, MA, USA) was used. The HPLC separation process was monitored by Empower® 3 Chromatography Manager Software (Waters Corp.). Isocratic elution by a mixture of MeOH p.a. (72%) and H2O-HPLC Mili-Q grade (28%) as a mobile phase was used for the determination of capacity factor k. Isocratic elution by a mixture of MeOH p.a. (72%) and acetate buffered saline (pH 7.4 and pH 6.5) (28%) as a mobile phase was used for the determination of distribution coefficient expressed as D7.4 and D6.5. The total flow of the column was 1.0 mL/min, injection 20 μL, column temperature 40 °C, and sample temperature 10 °C. The detection wavelength of 210 nm was chosen. A KI methanolic solution was used for the determination of the dead times (tD). Retention times (tR) were measured in minutes. The capacity factors k were calculated according to the formula k = (tR − tD)/tD, where tR is the retention time of the solute, and tD is the dead time obtained using an unretained analyte. The distribution coefficients DpH were calculated according to the formula DpH = (tR − tD)/tD. Each experiment was repeated three times.

[2] = system: Mycobacterium smegmatis ATCC 700084; test: In vitro antimycobacterial activity, broth dilution MIC; format: cell-based; conditions: Mycolicibacterium smegmatis
[3] = system: Mycobacterium marinum CAMP 5644; test: as above; format: cell-based; conditions: CAMP5644, 504 h
[4] = ATCC700084, 72 h, M. smegmatis ATCC 700084, three days, read-out: MIC MS
[5] = ATCC700084, M. smegmatis ATCC 700084, read-out: log(1/MIC [M]) MS (converted)
[6] = M. marinum CAMP 5644, 21 days, read-out: MIC MM
[7] = M. marinum CAMP 5644, read-out: log(1/MIC [M]) MM (converted)

Structure (SMILES) | log k [1] | log D6.5 [1] | log D7.4 [1] | MIC [2, 4] [M] | MIC [2, 5] [M] | MIC [3, 6] [M] | MIC [3, 7] [M]
O=C(/C=C/c1ccc(Cl)c(Cl)c1)Nc1cc(F)cc(F)c1 [2m, (2E)-3-(3,4-Dichlorophenyl)-N-(3,5-difluorophenyl)prop-2-enamide] | 0.9298 | 0.9345 | 0.8882 | – | – | – | –
O=C(/C=C/c1ccc(Cl)cc1)Nc1cc(Cl)ccc1Cl [1o, (2E)-3-(4-Chlorophenyl)-N-(2,5-dichlorophenyl)prop-2-enamide] | 0.9507 | 0.8986 | 0.9010 | – | – | – | –
O=C(/C=C/c1ccc(Cl)c(Cl)c1)Nc1cc(Cl)cc(Cl)c1 [2p, (2E)-N-(3,5-Dichlorophenyl)-3-(3,4-dichlorophenyl)prop-2-enamide] | 1.3043 | 1.3336 | 1.3080 | – | – | – | –
O=C(/C=C/c1ccc(Cl)cc1)Nc1ccc(OC(F)(F)F)cc1 [1k, (2E)-3-(4-Chlorophenyl)-N-[4-(trifluoromethoxy)phenyl]prop-2-enamide] | 0.8759 | 0.8702 | 0.8754 | – | – | – | –
O=C(/C=C/c1ccc(Cl)cc1)Nc1cc(F)cc(F)c1 [1m, (2E)-3-(4-Chlorophenyl)-N-(3,5-difluorophenyl)prop-2-enamide] | 0.8054 | 0.7502 | 0.7537 | – | – | – | –
O=C(/C=C/c1ccc(Cl)cc1)Nc1ccccc1 [1a, (2E)-3-(4-Chlorophenyl)-N-phenylprop-2-enamide] | 0.4490 | 0.4428 | 0.4515 | – | – | – | –
O=C(/C=C/c1ccc(Cl)c(Cl)c1)Nc1ccccc1Cl [2e, (2E)-N-(2-Chlorophenyl)-3-(3,4-dichlorophenyl)prop-2-enamide] | 0.6488 | 0.6925 | 0.6739 | – | – | – | –
O=C(/C=C/c1ccc(Cl)c(Cl)c1)Nc1ccc(F)cc1 [2d, (2E)-N-(4-Fluorophenyl)-3-(3,4-dichlorophenyl)prop-2-enamide] | 0.9009 | 0.9381 | 0.8660 | – | – | – | –
O=C(/C=C/c1ccc(Cl)c(Cl)c1)Nc1cc(Cl)ccc1Cl [2o, (2E)-N-(2,5-Dichlorophenyl)-3-(3,4-dichlorophenyl)prop-2-enamide] | 1.0840 | 1.0887 | 1.0474 | – | – | – | –
O=C(/C=C/c1ccc(Cl)cc1)Nc1ccccc1C(F)(F)F [1h, (2E)-3-(4-Chlorophenyl)-N-[2-(trifluoromethyl)phenyl]prop-2-enamide] | 0.5506 | 0.4938 | 0.5010 | – | – | – | –
O=C(/C=C/c1ccc(Cl)c(Cl)c1)Nc1ccc(F)cc1F [2l, (2E)-3-(3,4-Dichlorophenyl)-N-(2,4-difluorophenyl)prop-2-enamide] | 0.6989 | 0.7094 | 0.6632 | – | – | – | –
O=C(/C=C/c1ccc(Cl)cc1)Nc1ccc(Cl)cc1 [1g, (2E)-N,3-bis(4-Chlorophenyl)prop-2-enamide] | 0.5598 | 0.5012 | 0.5065 | – | – | – | –
O=C(/C=C/c1ccc(Cl)cc1)Nc1ccc(C(F)(F)F)cc1 [1j, (2E)-3-(4-Chlorophenyl)-N-[4-(trifluoromethyl)phenyl]prop-2-enamide] | 0.9078 | 0.8541 | 0.8560 | – | – | – | –
O=C(/C=C/c1ccc(Cl)cc1)Nc1ccc(Cl)cc1Cl [1n, (2E)-3-(4-Chlorophenyl)-N-(2,4-dichlorophenyl)prop-2-enamide] | 0.9665 | 0.9141 | 0.9170 | – | – | – | –
O=C(/C=C/c1ccc(Cl)c(Cl)c1)Nc1cccc(Cl)c1 [2f, (2E)-N-(3-Chlorophenyl)-3-(3,4-dichlorophenyl)prop-2-enamide] | 0.7404 | 0.7816 | 0.7616 | – | – | – | –
O=C(/C=C/c1ccc(Cl)cc1)Nc1ccc(F)cc1 [1d, (2E)-3-(4-Chlorophenyl)-N-(4-fluorophenyl)prop-2-enamide] | 0.7808 | 0.7252 | 0.7290 | – | – | – | –
O=C(/C=C/c1ccc(Cl)c(Cl)c1)Nc1ccc(Cl)cc1 [2g, (2E)-N-(4-Chlorophenyl)-3-(3,4-dichlorophenyl)prop-2-enamide] | 0.6786 | 0.7224 | 0.7021 | – | – | – | –
O=C(/C=C/c1ccc(Cl)cc1)Nc1cccc(Cl)c1 [1f, (2E)-N-(3-Chlorophenyl)-3-(4-chlorophenyl)prop-2-enamide] | 0.6192 | 0.5603 | 0.5666 | – | – | – | –
NNC(=O)c1ccncc1 [INH, isoniazid, reference compound] | – | – | – | 0.000117 (≈ 16 µg/mL) | 0.000117 (≈ 16.1 µg/mL) | 0.000467 (≈ 64 µg/mL) | 0.000468 (≈ 64.1 µg/mL)
O=C(/C=C/c1ccc(Cl)cc1)Nc1cccc(F)c1 [1c, (2E)-3-(4-Chlorophenyl)-N-(3-fluorophenyl)prop-2-enamide] | 0.7859 | 0.7296 | 0.7325 | – | – | – | –
O=C(/C=C/c1ccc(Cl)cc1)Nc1ccccc1F [1b, (2E)-3-(4-Chlorophenyl)-N-(2-fluorophenyl)prop-2-enamide] | 0.6459 | 0.5908 | 0.5965 | – | – | – | –
O=C(/C=C/c1ccc(Cl)c(Cl)c1)Nc1ccccc1C(F)(F)F [2h, (2E)-3-(3,4-Dichlorophenyl)-N-[2-(trifluoromethyl)phenyl]prop-2-enamide] | 0.6836 | 0.7295 | 0.6526 | – | – | – | –
O=C(/C=C/c1ccc(Cl)cc1)Nc1ccccc1Cl [1e, (2E)-N-(2-Chlorophenyl)-3-(4-chlorophenyl)prop-2-enamide] | 0.5241 | 0.4650 | 0.4724 | – | – | – | –
O=C(/C=C/c1ccc(Cl)c(Cl)c1)Nc1cccc(F)c1 [2c, (2E)-N-(3-Fluorophenyl)-3-(3,4-dichlorophenyl)prop-2-enamide] | 0.9071 | 0.9453 | 0.8735 | – | – | – | –
O=C(/C=C/c1ccc(Cl)cc1)Nc1ccc(F)cc1F [1l, (2E)-3-(4-Chlorophenyl)-N-(2,4-difluorophenyl)prop-2-enamide] | 0.5746 | 0.5172 | 0.5223 | – | – | – | –
CO[C@H]1/C=C/O[C@@]2(C)Oc3c(C)c(O)c4c(O)c(c(/C=N/N5CCN(C)CC5)c(O)c4c3C2=O)NC(=O)/C(C)=C\C=C\[C@H](C)[C@H](O)[C@@H](C)[C@@H](O)[C@@H](C)[C@H](OC(C)=O)[C@@H]1C [RIF, rifampicin, reference compound] | – | – | – | 1.94e-05 (≈ 16 µg/mL) | 1.95e-05 (≈ 16 µg/mL) | 2.43e-06 (≈ 2 µg/mL) | 2.45e-06 (≈ 2.02 µg/mL)
O=C(/C=C/c1ccc(Cl)c(Cl)c1)Nc1ccccc1F [2b, (2E)-N-(2-Fluorophenyl)-3-(3,4-dichlorophenyl)prop-2-enamide] | 0.7764 | 0.8203 | 0.8019 | – | – | – | –
O=C(/C=C/c1ccc(Cl)c(Cl)c1)Nc1ccc(Cl)cc1Cl [2n, (2E)-N-(2,4-Dichlorophenyl)-3-(3,4-dichlorophenyl)prop-2-enamide] | 1.0932 | 1.0985 | 1.0565 | – | – | – | –
